Experiments:
[1] = molecular target: JAK 2 (Homo sapiens, UniProt O60674); assay: Biochemical potency on JAK2, TR-FRET LANCE Ultra kinase assay (examples 1-99); details: ATP at Km (0.7 μM), read-out: JAK2 inhibitory activity (pIC50 class) (converted)
How it was run: (§1)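 Each JAK isoform (human) was tested separately in a peptide-phosphorylation TR-FRET assay at ATP ≈ Km. Eleven compound concentrations, top 20 μM, 5-fold spacing. Values are IC50s from normalized-response curve fits.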

[2] = molecular target: T1, JAK 3 (Homo sapiens, UniProt P52333); assay: Biochemical potency on JAK3, TR-FRET LANCE Ultra kinase assay (examples 1-99); details: ATP at Km (0.2 μM), read-out: JAK3 inhibitory activity (pIC50 class) (converted)
T1 sequence (P52333 1-1124): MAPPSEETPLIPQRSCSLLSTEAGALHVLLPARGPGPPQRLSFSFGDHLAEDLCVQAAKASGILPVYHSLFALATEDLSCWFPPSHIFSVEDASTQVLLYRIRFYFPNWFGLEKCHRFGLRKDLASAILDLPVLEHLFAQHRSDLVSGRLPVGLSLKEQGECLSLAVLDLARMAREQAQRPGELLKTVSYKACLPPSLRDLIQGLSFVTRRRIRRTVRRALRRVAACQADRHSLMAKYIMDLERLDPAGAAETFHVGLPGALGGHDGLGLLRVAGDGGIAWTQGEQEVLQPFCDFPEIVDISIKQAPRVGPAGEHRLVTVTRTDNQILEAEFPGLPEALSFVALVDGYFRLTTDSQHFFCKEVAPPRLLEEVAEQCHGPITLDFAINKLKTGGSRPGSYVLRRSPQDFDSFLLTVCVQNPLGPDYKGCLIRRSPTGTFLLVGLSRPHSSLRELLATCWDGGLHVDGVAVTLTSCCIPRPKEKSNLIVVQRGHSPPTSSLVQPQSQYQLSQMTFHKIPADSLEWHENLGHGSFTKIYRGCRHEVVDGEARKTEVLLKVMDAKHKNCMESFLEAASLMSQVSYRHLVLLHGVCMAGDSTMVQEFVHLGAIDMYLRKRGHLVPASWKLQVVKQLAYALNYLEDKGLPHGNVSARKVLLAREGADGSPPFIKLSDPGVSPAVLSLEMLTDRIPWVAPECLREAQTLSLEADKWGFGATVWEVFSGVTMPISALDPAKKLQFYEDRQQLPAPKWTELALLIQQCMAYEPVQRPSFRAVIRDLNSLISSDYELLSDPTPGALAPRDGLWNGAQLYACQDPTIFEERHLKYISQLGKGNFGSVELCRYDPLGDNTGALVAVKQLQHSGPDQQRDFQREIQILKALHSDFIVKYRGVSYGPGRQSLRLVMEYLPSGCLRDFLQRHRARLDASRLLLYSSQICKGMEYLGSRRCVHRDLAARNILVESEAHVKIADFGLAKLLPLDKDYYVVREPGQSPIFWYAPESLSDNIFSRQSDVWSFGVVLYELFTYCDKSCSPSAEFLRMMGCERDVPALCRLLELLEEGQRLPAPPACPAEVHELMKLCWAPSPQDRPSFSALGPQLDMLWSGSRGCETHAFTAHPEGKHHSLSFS
How it was run: as §1

[3] = molecular target: JAK 1 (Homo sapiens, UniProt P23458); assay: Biochemical potency on JAK1, TR-FRET LANCE Ultra kinase assay (examples 1-99); details: ATP at Km (20 μM), read-out: JAK1 inhibitory activity (pIC50 class) (converted)
How it was run: as §1

[4] = molecular target: TYK2 (Homo sapiens, UniProt P29597); assay: Biochemical potency on Tyk2, TR-FRET LANCE Ultra kinase assay (examples 1-99); details: ATP at Km (12 μM), read-out: Tyk2 inhibitory activity (pIC50 class) (converted)
How it was run: as §1

TYK2, sequence (P29597 whole entry): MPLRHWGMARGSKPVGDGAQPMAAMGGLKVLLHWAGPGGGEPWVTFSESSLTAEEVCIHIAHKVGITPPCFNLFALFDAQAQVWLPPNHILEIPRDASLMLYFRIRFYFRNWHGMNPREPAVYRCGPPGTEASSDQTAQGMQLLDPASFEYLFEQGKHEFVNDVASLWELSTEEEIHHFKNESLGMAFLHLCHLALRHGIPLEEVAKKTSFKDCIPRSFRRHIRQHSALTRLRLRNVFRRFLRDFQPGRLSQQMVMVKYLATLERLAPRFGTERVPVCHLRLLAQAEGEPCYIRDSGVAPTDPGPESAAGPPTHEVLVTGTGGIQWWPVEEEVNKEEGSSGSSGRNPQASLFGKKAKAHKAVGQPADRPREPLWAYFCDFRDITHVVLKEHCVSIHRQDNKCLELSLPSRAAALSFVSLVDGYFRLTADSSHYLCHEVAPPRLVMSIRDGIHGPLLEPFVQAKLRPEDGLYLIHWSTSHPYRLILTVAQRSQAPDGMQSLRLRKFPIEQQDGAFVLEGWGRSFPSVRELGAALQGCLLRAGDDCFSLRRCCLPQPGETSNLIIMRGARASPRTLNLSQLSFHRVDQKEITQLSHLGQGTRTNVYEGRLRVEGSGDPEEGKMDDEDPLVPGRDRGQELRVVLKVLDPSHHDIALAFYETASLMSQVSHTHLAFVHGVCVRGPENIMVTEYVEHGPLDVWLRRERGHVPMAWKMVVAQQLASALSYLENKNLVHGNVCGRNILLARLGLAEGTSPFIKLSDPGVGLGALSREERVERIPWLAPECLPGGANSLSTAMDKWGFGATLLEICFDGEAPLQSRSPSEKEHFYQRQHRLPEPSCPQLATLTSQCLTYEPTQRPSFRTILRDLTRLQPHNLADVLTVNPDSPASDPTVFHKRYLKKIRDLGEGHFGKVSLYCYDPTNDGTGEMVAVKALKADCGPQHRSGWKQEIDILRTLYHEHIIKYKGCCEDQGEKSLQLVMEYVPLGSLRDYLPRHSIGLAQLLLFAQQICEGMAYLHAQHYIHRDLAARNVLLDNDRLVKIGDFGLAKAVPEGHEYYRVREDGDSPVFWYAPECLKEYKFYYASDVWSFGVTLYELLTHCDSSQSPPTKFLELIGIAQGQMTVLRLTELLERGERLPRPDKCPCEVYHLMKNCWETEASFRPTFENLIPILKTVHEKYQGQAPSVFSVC
JAK 1, sequence (P23458 whole entry): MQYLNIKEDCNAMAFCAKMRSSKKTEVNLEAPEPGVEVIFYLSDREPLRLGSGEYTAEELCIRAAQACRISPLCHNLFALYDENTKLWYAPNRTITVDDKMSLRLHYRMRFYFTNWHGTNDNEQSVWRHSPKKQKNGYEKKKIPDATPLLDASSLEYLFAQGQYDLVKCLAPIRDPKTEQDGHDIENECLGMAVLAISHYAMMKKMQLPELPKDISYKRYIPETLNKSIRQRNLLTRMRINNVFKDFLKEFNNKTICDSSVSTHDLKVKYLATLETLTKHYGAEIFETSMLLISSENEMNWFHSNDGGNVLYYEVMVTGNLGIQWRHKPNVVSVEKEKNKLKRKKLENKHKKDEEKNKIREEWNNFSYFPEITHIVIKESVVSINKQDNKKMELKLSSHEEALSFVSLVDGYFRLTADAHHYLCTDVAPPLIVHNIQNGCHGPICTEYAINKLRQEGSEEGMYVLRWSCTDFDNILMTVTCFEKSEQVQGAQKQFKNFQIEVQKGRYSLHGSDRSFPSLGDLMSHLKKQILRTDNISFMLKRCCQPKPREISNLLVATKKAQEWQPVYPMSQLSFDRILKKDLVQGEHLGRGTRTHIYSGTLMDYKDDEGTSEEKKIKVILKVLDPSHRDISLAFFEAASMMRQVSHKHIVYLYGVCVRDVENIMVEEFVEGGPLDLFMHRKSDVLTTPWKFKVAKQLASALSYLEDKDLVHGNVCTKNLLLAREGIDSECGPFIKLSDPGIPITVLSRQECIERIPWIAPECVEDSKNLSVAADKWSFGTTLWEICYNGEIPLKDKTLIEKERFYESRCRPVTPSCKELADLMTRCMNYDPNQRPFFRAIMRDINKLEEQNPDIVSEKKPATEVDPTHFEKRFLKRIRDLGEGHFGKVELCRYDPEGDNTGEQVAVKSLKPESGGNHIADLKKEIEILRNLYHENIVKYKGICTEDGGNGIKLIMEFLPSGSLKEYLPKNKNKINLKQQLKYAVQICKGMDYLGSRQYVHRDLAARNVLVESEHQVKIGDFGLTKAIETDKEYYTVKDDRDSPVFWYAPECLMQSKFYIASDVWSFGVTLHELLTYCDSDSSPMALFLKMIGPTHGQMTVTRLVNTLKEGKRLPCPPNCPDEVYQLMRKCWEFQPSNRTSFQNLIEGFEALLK
JAK 2, sequence (O60674 whole entry, canonical isoform): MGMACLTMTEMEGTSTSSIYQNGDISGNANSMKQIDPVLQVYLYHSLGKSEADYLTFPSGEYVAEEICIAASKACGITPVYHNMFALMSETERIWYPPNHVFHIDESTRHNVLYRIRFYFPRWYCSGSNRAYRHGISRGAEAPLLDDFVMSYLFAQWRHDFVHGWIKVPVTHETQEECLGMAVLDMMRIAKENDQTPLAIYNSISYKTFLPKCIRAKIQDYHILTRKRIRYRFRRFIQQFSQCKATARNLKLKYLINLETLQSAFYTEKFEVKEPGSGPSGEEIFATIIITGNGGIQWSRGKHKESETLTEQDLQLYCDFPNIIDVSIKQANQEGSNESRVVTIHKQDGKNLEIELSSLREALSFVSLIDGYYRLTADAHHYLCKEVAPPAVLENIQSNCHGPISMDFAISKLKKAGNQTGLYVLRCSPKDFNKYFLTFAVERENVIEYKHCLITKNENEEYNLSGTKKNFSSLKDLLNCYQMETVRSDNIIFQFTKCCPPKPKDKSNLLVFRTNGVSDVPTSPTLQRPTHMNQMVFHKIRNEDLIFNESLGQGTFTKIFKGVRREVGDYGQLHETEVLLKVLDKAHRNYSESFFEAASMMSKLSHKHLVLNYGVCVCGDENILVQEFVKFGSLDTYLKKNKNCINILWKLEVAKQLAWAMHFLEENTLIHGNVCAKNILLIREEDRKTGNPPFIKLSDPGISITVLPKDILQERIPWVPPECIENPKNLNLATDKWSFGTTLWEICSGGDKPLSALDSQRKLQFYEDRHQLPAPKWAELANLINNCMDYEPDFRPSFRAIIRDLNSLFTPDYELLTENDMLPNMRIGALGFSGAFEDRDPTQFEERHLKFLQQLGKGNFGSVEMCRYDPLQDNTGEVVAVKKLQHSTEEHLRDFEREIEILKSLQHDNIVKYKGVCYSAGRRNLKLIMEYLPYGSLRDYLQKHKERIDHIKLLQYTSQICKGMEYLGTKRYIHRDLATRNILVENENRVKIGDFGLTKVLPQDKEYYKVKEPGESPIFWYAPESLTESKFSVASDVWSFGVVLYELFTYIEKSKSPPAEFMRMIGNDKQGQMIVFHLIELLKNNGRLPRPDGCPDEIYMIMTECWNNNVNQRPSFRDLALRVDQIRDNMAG

Compound | IC50 [1] [nM] | IC50 [2] [nM] | IC50 [3] [nM] | IC50 [4] [nM]
CNc1nn(-c2cc(Cl)ccc2OC)c2cc(-c3cnn4cccnc34)ncc12 [Example 41, 1-(5-chloro-2-methoxyphenyl)-N-methyl-6-(pyrazolo[1,5-a]pyrimidin-3-yl)-1H-pyrazolo[4,3-c]pyridin-3-amine] | ≤ 5.01 | ≤ 5.01 | ≤ 5.01 | 5.01 to 50.1
COc1cc(O)c(Cl)cc1-n1nc(C)c2cnc(-c3cnn4cccnc34)cc21 [Example 59, 2-chloro-5-methoxy-4-(3-methyl-6-(pyrazolo[1,5-a]pyrimidin-3-yl)-1H-pyrazolo[4,3-c]pyridin-1-yl)phenol] | ≤ 5.01 | ≤ 5.01 | ≤ 5.01 | 5.01 to 50.1
CNS(=O)(=O)c1ccc(OC)c(-n2nc(C)c3cnc(-c4cnn5cccnc45)cc32)c1 [Example 14, 4-methoxy-N-methyl-3-(3-methyl-6-(pyrazolo[1,5-a]pyrimidin-3-yl)-1H-pyrazolo[4,3-c]pyridin-1-yl)benzenesulfonamide] | ≤ 5.01 | ≤ 5.01 | 5.01 to 50.1 | 5.01 to 50.1
Cc1nn(-c2cc(Br)ccc2OC(F)F)c2cc(-c3cnn4cccnc34)ncc12 [Example 63, 1-(5-bromo-2-(difluoromethoxy)phenyl)-3-methyl-6-(pyrazolo[1,5-a]pyrimidin-3-yl)-1H-pyrazolo[4,3-c]pyridine] | ≤ 5.01 | ≤ 5.01 | ≤ 5.01 | 5.01 to 50.1
Cc1nn(-c2cc(S(=O)(=O)CCCN(C)C)ccc2OC(F)F)c2cc(-c3cnn4cccnc34)ncc12 [Example 21, 3-((4-(difluoromethoxy)-3-(3-methyl-6-(pyrazolo[1,5-a]pyrimidin-3-yl)-1H-pyrazolo[4,3-c]pyridin-1-yl)phenyl)sulfonyl)-N,N-dimethylpropan-1-amine] | 5.01 to 50.1 | 5.01 to 50.1 | 5.01 to 50.1 | > 50.1
OCc1nn(-c2cc(Cl)ccc2OC(F)F)c2cc(-c3cnn4cccnc34)ncc12 [Example 29, (1-(5-chloro-2-(difluoromethoxy)phenyl)-6-(pyrazolo[1,5-a]pyrimidin-3-yl)-1H-pyrazolo[4,3-c]pyridin-3-yl)methanol] | ≤ 5.01 | ≤ 5.01 | 5.01 to 50.1 | 5.01 to 50.1
COc1ccc(F)cc1-n1nc(C)c2cnc(Nc3ncc[nH]c3=O)cc21 [Example 90, 3-((1-(5-Fluoro-2-methoxyphenyl)-3-methyl-1H-pyrazolo[4,3-c]pyridin-6-yl)amino)pyrazin-2(1H)-one] | ≤ 5.01 | ≤ 5.01 | 5.01 to 50.1 | 5.01 to 50.1
COc1ccc(Cl)cc1-n1ncc2c(N)nc(-c3cnn4cccnc34)cc21 [Example 56, 1-(5-chloro-2-methoxyphenyl)-6-(pyrazolo[1,5-a]pyrimidin-3-yl)-1H-pyrazolo[4,3-c]pyridin-4-amine] | 5.01 to 50.1 | 5.01 to 50.1 | 5.01 to 50.1 | 5.01 to 50.1
COc1ccc(Cl)cc1-n1nc(N2CC(CO)C2)c2cnc(-c3cnn4cccnc34)cc21 [Example 49, (1-(1-(5-chloro-2-methoxyphenyl)-6-(pyrazolo[1,5-a]pyrimidin-3-yl)-1H-pyrazolo[4,3-c]pyridin-3-yl)azetidin-3-yl)methanol] | 5.01 to 50.1 | 5.01 to 50.1 | 5.01 to 50.1 | 5.01 to 50.1
COc1ccc(F)cc1-n1nc(C)c2cnc(-c3cnn4cccnc34)cc21 [Example 1, 1-(5-fluoro-2-methoxyphenyl)-3-methyl-6-(pyrazolo[1,5-a]pyrimidin-3-yl)-1H-pyrazolo[4,3-c]pyridine] | ≤ 5.01 | 5.01 to 50.1 | 5.01 to 50.1 | 5.01 to 50.1
COc1ccc(OC)c(-n2nc(C)c3cnc(-c4cnn5cccnc45)cc32)c1 [Example 8, 1-(2,5-dimethoxyphenyl)-3-methyl-6-(pyrazolo[1,5-a]pyrimidin-3-yl)-1H-pyrazolo[4,3-c]pyridine] | ≤ 5.01 | 5.01 to 50.1 | 5.01 to 50.1 | > 50.1
NC1CN(Cc2nn(-c3cc(Cl)ccc3OC(F)F)c3cc(-c4cnn5cccnc45)ncc23)C1 [Example 76, 1-((1-(5-chloro-2-(difluoromethoxy)phenyl)-6-(pyrazolo[1,5-a]pyrimidin-3-yl)-1H-pyrazolo[4,3-c]pyridin-3-yl)methyl)azetidin-3-amine] | 5.01 to 50.1 | 5.01 to 50.1 | 5.01 to 50.1 | > 50.1
CNCC(=O)Nc1nn(-c2cc(Cl)ccc2OC)c2cc(-c3cnn4cccnc34)ncc12 [Example 87, N-(1-(5-chloro-2-methoxyphenyl)-6-(pyrazolo[1,5-a]pyrimidin-3-yl)-1H-pyrazolo[4,3-c]pyridin-3-yl)-2-(methylamino)acetamide] | ≤ 5.01 | 5.01 to 50.1 | 5.01 to 50.1 | 5.01 to 50.1
COc1ccc(C(F)F)cc1-n1nc(NCCN(C)C)c2cnc(-c3cnn4cccnc34)cc21 [Example 44, N1-(1-(5-(difluoromethyl)-2-methoxyphenyl)-6-(pyrazolo[1,5-a]pyrimidin-3-yl)-1H-pyrazolo[4,3-c]pyridin-3-yl)-N2,N2-dimethylethane-1,2-diamine] | ≤ 5.01 | 5.01 to 50.1 | 5.01 to 50.1 | 5.01 to 50.1
Cc1nn(-c2cc(S(C)(=O)=O)ccc2OC(F)F)c2cc(Nc3ncc[nH]c3=O)ncc12 [Example 94, 3-((1-(2-(difluoromethoxy)-5-(methylsulfonyl)phenyl)-3-methyl-1H-pyrazolo[4,3-c]pyridin-6-yl)amino)pyrazin-2(1H)-one] | ≤ 5.01 | ≤ 5.01 | ≤ 5.01 | 5.01 to 50.1
CNC(=O)CN(C)[C@H]1C[C@H](NC(=O)c2nn(-c3cc(Cl)ccc3OC)c3cc(-c4cnn5cccnc45)ncc23)C1 [Example 78, 1-(5-chloro-2-methoxyphenyl)-N-((1r,3r)-3-(methyl(2-(methylamino)-2-oxoethyl)amino)cyclobutyl)-6-(pyrazolo[1,5-a]pyrimidin-3-yl)-1H-pyrazolo[4,3-c]pyridine-3-carboxamide] | 5.01 to 50.1 | 5.01 to 50.1 | 5.01 to 50.1 | > 50.1
CNC(=O)c1nn(-c2cc(Cl)ccc2OC(F)F)c2cc(-c3cnn4cccnc34)ncc12 [Example 33, 1-(5-chloro-2-(difluoromethoxy)phenyl)-N-methyl-6-(pyrazolo[1,5-a]pyrimidin-3-yl)-1H-pyrazolo[4,3-c]pyridine-3-carboxamide] | ≤ 5.01 | ≤ 5.01 | ≤ 5.01 | 5.01 to 50.1
COc1ccc(F)cc1-n1nc(C(=O)NCCCN(C)C)c2cnc(-c3cnn4cccnc34)cc21 [Example 38, N-(3-(dimethylamino)propyl)-1-(5-fluoro-2-methoxyphenyl)-6-(pyrazolo[1,5-a]pyrimidin-3-yl)-1H-pyrazolo[4,3-c]pyridine-3-carboxamide] | 5.01 to 50.1 | 5.01 to 50.1 | 5.01 to 50.1 | > 50.1
COc1ccc(S(=O)(=O)NCCCN2CCN(C)CC2)cc1-n1nc(C)c2cnc(-c3cnn4cccnc34)cc21 [Example 16, 4-methoxy-3-(3-methyl-6-(pyrazolo[1,5-a]pyrimidin-3-yl)-1H-pyrazolo[4,3-c]pyridin-1-yl)-N-(3-(4-methylpiperazin-1-yl)propyl)benzenesulfonamide] | 5.01 to 50.1 | > 50.1 | > 50.1 | > 50.1
NCc1nn(-c2cc(Cl)ccc2OC(F)F)c2cc(-c3cnn4cccnc34)ncc12 [Example 32, (1-(5-chloro-2-(difluoromethoxy)phenyl)-6-(pyrazolo[1,5-a]pyrimidin-3-yl)-1H-pyrazolo[4,3-c]pyridin-3-yl)methanamine] | ≤ 5.01 | 5.01 to 50.1 | 5.01 to 50.1 | 5.01 to 50.1
